Assay results published in PMC10254045, “Elaboration of the Effective Multi-Target Therapeutic Platform for the Treatment of Alzheimer’s Disease Based on Novel Monoterpene-Derived Hydroxamic Acids” (International Journal of Molecular Sciences, 2023).

Assays:
[1] = Oxygen radical absorbance capacity (ORAC); conditions: Trolox equivalent; compounds and Trolox 100 µM, AAPH 12 mM
Excerpt: DPPH is a stable chromogen radical, which is widely used to assess the antioxidant activity of biological objects, in particular when searching for potential therapeutic agents used to maintain the redox balance in the body and treat pathologies associated with the action of free radicals. In turn, the oxygen radical absorbance capacity (ORAC) analysis is based on the removal by potential antioxidants of peroxyl radicals generated by AAPH (2,2’-axobis-2-methyl-propanimidamide, dihydrochloride), preventing the degradation of the fluorescein probe.
The analysis of the absorption capacity of oxygen radicals was performed as described in [151], with some modifications. Trolox (Sigma Aldrich, St. Louis, MI, USA) was used as a standard antioxidant. The studied compounds were introduced into the holes of a 96-hole black tablet with a transparent bottom with Trolox (25 µL; the final concentration was 100 µM) and fluorescein (150 µL; the final concentration was 80 nM, Sigma Aldrich, St. Louis, MI, USA). The resulting mixture was shaken and incubated for 30 min at 37 °C. After a 30-min incubation period, a solution of 2,2’-azobis (2-amidinopropane) dihydrochloride (AAPH) (25 µL; final concentration of 12 mM, Sigma Aldrich, St. Louis, MI, USA) was quickly introduced into all wells of the tablet. The tablet was immediately placed in a multifunctional tablet analyzer Cytation™ 3 (BioTek Instruments, Inc., Winooski, VT, USA). The fluorescence intensity was recorded for 300 min at λex = 480 nm, λem = 520 nm with an interval of every 5 min. In the same experiment, calibration solutions for the reference antioxidant Trolox were used to confirm the validity of the use of this method (0, 6.25, 12.5, 25, 50 and 100 µM).

HDAC6 = target: T1, HDAC6 (Homo sapiens, UniProt Q9UBN7); experiment: Fluorimetric measurement of HDAC6 activity (FLUOR DE LYS kit); type: biochemical; conditions: Table 1; read-out: HDAC6-Inhibitory Effect, IC50
T1 construct: purchased Enzo Life Sciences
T1 sequence (Q9UBN7 1-1215): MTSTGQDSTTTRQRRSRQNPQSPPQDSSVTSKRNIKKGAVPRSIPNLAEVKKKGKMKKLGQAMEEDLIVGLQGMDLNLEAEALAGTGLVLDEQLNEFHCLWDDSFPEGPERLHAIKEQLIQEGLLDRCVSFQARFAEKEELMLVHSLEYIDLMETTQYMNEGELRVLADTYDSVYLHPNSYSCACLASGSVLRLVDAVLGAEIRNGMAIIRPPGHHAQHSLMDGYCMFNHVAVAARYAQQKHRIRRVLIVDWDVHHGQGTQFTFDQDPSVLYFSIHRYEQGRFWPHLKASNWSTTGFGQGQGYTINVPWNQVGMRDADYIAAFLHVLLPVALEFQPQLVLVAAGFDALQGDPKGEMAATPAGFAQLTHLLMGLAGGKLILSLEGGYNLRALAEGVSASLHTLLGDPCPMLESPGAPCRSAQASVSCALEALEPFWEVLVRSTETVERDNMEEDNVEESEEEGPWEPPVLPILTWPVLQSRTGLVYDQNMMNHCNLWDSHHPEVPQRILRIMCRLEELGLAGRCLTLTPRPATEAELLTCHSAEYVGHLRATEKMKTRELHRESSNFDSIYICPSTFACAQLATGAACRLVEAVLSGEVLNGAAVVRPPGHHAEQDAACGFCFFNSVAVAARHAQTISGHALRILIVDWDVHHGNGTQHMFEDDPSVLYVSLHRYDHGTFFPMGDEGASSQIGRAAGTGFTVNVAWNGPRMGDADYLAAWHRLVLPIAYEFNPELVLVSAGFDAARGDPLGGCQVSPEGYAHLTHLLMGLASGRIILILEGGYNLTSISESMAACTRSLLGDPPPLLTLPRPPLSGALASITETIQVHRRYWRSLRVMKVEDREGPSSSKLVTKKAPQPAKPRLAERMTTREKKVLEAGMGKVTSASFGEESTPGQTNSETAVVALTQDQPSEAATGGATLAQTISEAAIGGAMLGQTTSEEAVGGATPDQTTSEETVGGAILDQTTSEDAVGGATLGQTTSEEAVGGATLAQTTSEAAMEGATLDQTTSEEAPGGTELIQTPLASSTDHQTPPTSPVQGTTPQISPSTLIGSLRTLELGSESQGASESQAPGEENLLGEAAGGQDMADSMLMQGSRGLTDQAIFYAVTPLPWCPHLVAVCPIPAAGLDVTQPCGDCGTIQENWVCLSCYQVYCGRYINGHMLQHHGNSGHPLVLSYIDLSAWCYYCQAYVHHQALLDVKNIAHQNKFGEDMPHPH

[2] = target: T2, β-amyloid peptide 1-42 (Aβ1-42) (Homo sapiens, UniProt P05067); experiment: Thioflavin T fluorescent analysis of Aβ1-42 aggregation; type: biochemical; conditions: 48 h, compounds 100 µM, Thioflavin T 10 µM, 48 h registration; read-out: prevention of the aggregation of Aβ1-42
T2 construct: the pathological form of β-amyloid peptide 1-42 (Sigma Aldrich); purchased Sigma Aldrich
T2 sequence (P05067 672-713 limits assumed): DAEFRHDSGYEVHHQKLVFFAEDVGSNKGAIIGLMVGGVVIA
Excerpt: The aggregation process of β-amyloid peptide 1-42 (Aβ1-42), caused by hydrophobic interactions of peptide monomers and, as a consequence, the formation of the most toxic polymorphic structure-oligomeric fragments of Aβ, was detected using the fluorescent dye Thioflavin T (Figure 4a). This method is the most widely used for selective staining and the identification of amyloid aggregates, which is confirmed by a large number of works. Fluorescence analysis using Thioflavin T made it possible to monitor the aggregation process of the pathological form of β-amyloid peptide 1-42 (Sigma Aldrich, St. Louis, MI, USA). The experimental protocol was carried out similarly to that described in [58] with some modifications. The registration of changes in the fluorescence of thioflavin T (10 µM, Sigma Aldrich, St. Louis, MI, USA) was performed on a multifunctional tablet analyzer Cytation™3 (BioTek Instruments, Inc., Winooski, VT, USA) at λex = 450 nm, λem = 480 nm. The fluorescence intensity of the solution without Aβ1-42 was subtracted from the fluorescence values of solutions containing protein, due to the need to subtract the background fluorescence.

- IC50 (HDAC6): 3.85 ± 0.24 µM
- inhibition at 100 µM [2]: 73.9%
SMILES: C=C(C)[C@@H]1CC=C(CNC(=O)/C=C/c2ccc(C(=O)NO)cc2)CC1 [Compound 35a, (S,E)-N-hydroxy-4-(3-oxo-3-(((4-(prop-1-en-2-yl)cyclohex-1-en-1-yl)methyl)amino)prop-1-en-1-yl)benzamide]
- ORAC value (TE) [1]: 1.15 TE
